# Assay results from patent US4430355A, “Condensed isothiazolo-3 (2H)-one-1-1-dioxides” (priority 1977, dated 1984).
# Like-named read-outs stand apart in the source and are kept apart here.
# Experiments:
# [1] = value given on page 6 of German Offenlegungsschrift 2,534,689; cited from earlier work
# [2] = Determination of the relative sweetening power in comparison to saccharose (taste testers, 3% saccharose solution)
# Text: The relative sweetening power (often also defined as degree of sweetness) of sweetening agents in comparison to saccharose (cane sugar) varies with the concentrations within wide limits. Thus, in the usual concentrations (corresponding to a 2-10% solution of saccharose) the relative sweetening power of saccharin varies from 200 to 700. Therefore, for the determination of the relative sweetening power of the above-mentioned compounds a 3% aqueous solution of saccharose was always used for comparison.
# The further determination of the relative sweetening power was continued according to the methods of R. Pauli [Chemiker Zeitung 44, 744 (1920)] and T. Paul [Chemiker-Zeitung 45 38 (1921)]. Each test series was tested by 4 taste testers.
# [3] = Determination of the threshold concentration (taste testers, Schutz and Pilgrim method); set-up: key: mean of 5 testers; 0 = not sweet, 3 = very sweet
# Procedure: From novel compounds A, B, C, D, E and F and from known comparison compounds U, V and W aqueous solutions in concentrations of 1:12500, 1:25000, 1:50000, 1:100000 and 1:200000 were prepared and evaluated by each of 5 taste testers according to the following criteria: Very sweet (=3 points); medium sweet (=2 points), slightly sweet (=1 point) and not sweet (=0 point). The tests were carried out according to the method of H. G. Schutz and F. J. Pilgrim [Food Research 22, 206 (1957)]. The dilution with perceptible sweetness was defined as the concentration at which the average value reached the evaluation points 1.0 or higher.
# mouse = assay: Orienting acute toxicity, oral, mouse; type: in vivo; details: 6 animals
# Procedure: The acute toxicity was determined after oral administration to male and female mice and to male and female rats. The substances were given in an aqueous solution or as a suspension in tylose.
# microorganism growth = assay: Series dilution essay, inhibition of the microorganism growth; type: cell-based; details: highest dosages (C 0.5 mgm/plate, D 20 mg/plate)
# Procedure: (§1) The substance concentrations of compound C were 0.1 and 0.5 mgm/plate and the concentrations of compound D were 5, 10, 15 and 20 mg/plate.
# [4] = system: Salmonella typhimurium TA 98, TA 100, TA 1535, TA 1537, TA 1538; assay: AMES-system, test for mutagenic effects, Salmonella typhimurium; type: cell-based
# Procedure: Compounds C and D were tested in the AMES-system [Mutation Research 31, 347-364 (1975)] with regard to their mutagenic properties. In order to show the whole spectrum of induced molecular DNA-damages (base substitutions, frame-shift mutations, deletions) the auxotrophic bacterial strains Salmonella typhimurium TA 98, TA 100 and Escherichia coli WP 2 (P) were used as genetic indicators. The strains Salmonella typhimurium TA 1535, TA 1537 and TA 1538 were additionally used in the test of compound C.
# The test for all microorganisms were carried out in a way such that the influence of a microsomal enzyme system, together with the corresponding co-factors, could be tested with regard to the test substance, and to determine the differences in enzyme induction. The tests were performed without an activating system and in the presence of an activating system. For the in vitro-activation, S-9 supernatants (fraction of the endoplasmatic reticulum) of normal, i.e. not pre-treated rats and of Aroclor 1254 (500 mg/kg) induced rats were used. From the S-9 induced fraction, 3 different concentration levels were tested.
# as §1
# [5] = system: Escherichia coli WP 2 (P); assay: AMES-system, test for mutagenic effects, Escherichia coli; type: cell-based
# Procedure: In order to show the whole spectrum of induced molecular DNA-damages (base substitutions, frame-shift mutations, deletions) the auxotrophic bacterial strains Salmonella typhimurium TA 98, TA 100 and Escherichia coli WP 2 (P) were used as genetic indicators.
# The test for all microorganisms were carried out in a way such that the influence of a microsomal enzyme system, together with the corresponding co-factors, could be tested with regard to the test substance, and to determine the differences in enzyme induction. The tests were performed without an activating system and in the presence of an activating system. […] From the S-9 induced fraction, 3 different concentration levels were tested.
# [6] = higher dosage levels; cited from earlier work
# [7] = Evaluation of taste quality
# Text: They often have a side-taste or after-taste. Novel compounds A to F are, however, characterized by a very pure sweet taste.
# [8] = compared with 3% aqueous solution of saccharose
structure (smiles),measurement,setting,value
"O=C1NS(=O)(=O)c2sccc21 [X, Thieno[3,2-d]isothiazole-3(2H)-one-1,1-dioxide]",Relative Sweetening Power (Saccharose = 1),[1],350
"O=C1NS(=O)(=O)c2ccccc21.[Na] [W, Saccharin sodium, reference compound]",Relative Sweetening Power (Saccharose = 1),[2]; [8],550
same,Average Value of Evaluation Points,[3]; concentration 1:25000,2.2
same,Average Value of Evaluation Points,[3]; concentration 1:50000,1.2
same,Average Value of Evaluation Points,[3]; concentration 1:100000,0.0
"Cc1cc2c(s1)S(=O)(=O)NC2=O [B, 5-Methyl-thieno[3,2-d]isothiazole-3(2H)-one-1,1-dioxide]","Animals which died within the observation time, 1 day",mouse; 5000 mgm/kg oral,0 animals
same,"Animals which died within the observation time, 7 days",mouse; 5000 mgm/kg oral,0 animals
same,Relative Sweetening Power (Saccharose = 1),[2]; [8],550
same,Average Value of Evaluation Points,[3]; concentration 1:25000,2.2
same,Average Value of Evaluation Points,[3]; concentration 1:50000,1.4
same,Average Value of Evaluation Points,[3]; concentration 1:100000,0.2
"Cc1cc2c(s1)S(=O)(=O)NC2=O.[Ca] [D, 5-Methyl-thieno[3,2-d]isothiazole-3(2H)-one-1,1-dioxide calcium salt]","Animals which died within the observation time, 1 day",mouse; 5000 mgm/kg oral,0 animals
same,"Animals which died within the observation time, 7 days",mouse; 5000 mgm/kg oral,0 animals
same,inhibition of the microorganism growth,microorganism growth,did not show any inhibition
same,release of base substitutions,"[4]; S. typhimurium TA 1535, TA 100",do not release base substitutions
same,release of frame-shift mutations,"[4]; S. typhimurium TA 1537, TA 1538, TA 98",do not release
same,increase in the spontaneous mutation rate,"[4]; Salmonella strains, C 0.1 and 0.5 mgm/plate, D 5-20 mg/plate, with and without activating system",did not lead to an increase
same,colonies counted on the substance plates,[4]; all test strains,within the spontaneous range
same,effect of the enzyme induction and of the activating fraction on the reverse mutation rate,"[4]; all tested strains, S-9 of normal and Aroclor 1254 induced rats",not detectable
same,mutagenic potential,[4]; conclusion over all tested strains,do not indicate a mutagenic potential
same,Relative Sweetening Power (Saccharose = 1),[2]; [8],500
same,Average Value of Evaluation Points,[3]; concentration 1:25000,1.8
same,Average Value of Evaluation Points,[3]; concentration 1:50000,1.0
same,Average Value of Evaluation Points,[3]; concentration 1:100000,0.0
same,release of base substitutions,[5]; E. coli WP2 (P),do not release base substitutions
same,increase in the spontaneous mutation rate,"[5]; E. coli WP 2 (P), C 0.1 and 0.5 mgm/plate, D 5-20 mg/plate, with and without activating system",did not lead to an increase
"Cc1sc2c(c1C)C(=O)NS2(=O)=O.[Na] [F, 4,5-Dimethyl-thieno[3,2-d]isothiazole-3(2H)-one-1,1-dioxide sodium salt]",Relative Sweetening Power (Saccharose = 1),[2]; [8],1000
same,Average Value of Evaluation Points,[3]; concentration 1:50000,2.0
same,Average Value of Evaluation Points,[3]; concentration 1:100000,1.4
same,Average Value of Evaluation Points,[3]; concentration 1:200000,0.2
"O=S(=O)(O)NC1CCCCC1 [U, Cyclamate, reference compound]",safety as sweetening agent,[6],not entirely safe
same,Relative Sweetening Power (Saccharose = 1),[2],60
same,Average Value of Evaluation Points,[3]; concentration 1:12500,0.4
"Cc1sc2c(c1C)C(=O)NS2(=O)=O [E, 4,5-Dimethyl-thieno[3,2-d]isothiazole-3(2H)-one-1,1-dioxide]","Animals which died within the observation time, 1 day",mouse; 1000 mgm/kg oral,0 animals
same,"Animals which died within the observation time, 7 days",mouse; 1000 mgm/kg oral,0 animals
same,Relative Sweetening Power (Saccharose = 1),[2]; [8],1050
same,Average Value of Evaluation Points,[3]; concentration 1:50000,2.2
same,Average Value of Evaluation Points,[3]; concentration 1:100000,1.6
same,Average Value of Evaluation Points,[3]; concentration 1:200000,0.4
"Cc1cc2c(o1)S(=O)(=O)NC2=O [A, 5-Methyl-furo[3,2-d]isothiazole-3-(2H)-one-1,1-dioxide]","Animals which died within the observation time, 1 day",mouse; 1000 mgm/kg oral,0 animals
same,"Animals which died within the observation time, 7 days",mouse; 1000 mgm/kg oral,0 animals
same,taste quality compared with saccharose (cane sugar),[7],achieve the taste quality of saccharose
same,Relative Sweetening Power (Saccharose = 1),[2]; [8],150
same,Average Value of Evaluation Points,[3]; concentration 1:12500,1.4
same,Average Value of Evaluation Points,[3]; concentration 1:25000,0.2
